Where two headings read alike, the source gives them in different places. Marks after values point to notes of the source that are not given here. Each block holds one compound with its values, some of them ahead of it.
Columns and labels:
[1] = test system: ORFeus-Hs (synthetic human L1) retrotransposition in HeLa cells; assay: Cell-based L1 retrotransposition assay, ORFeus-Hs
Method: (§1) The cell-based retrotransposition assay was conducted as described. HeLa cells (a gift from Dr. John Moran, University of Michigan) were seeded in 6-well dishes in DMEM (2×10^5 cells/well). The next day cells were transfected with Fugene 6 according to the manufacturer's manual. Each transfection consisted of 96 μl Opti-Mem, 1 μg pWA195 DNA and 3 μl Fugene 6. Sixteen hours after transfection, the cells were trypsinized and transferred to a 6 cm plate in DMEM with 2.5 μg/ml puromycin and the RT inhibitors. Three days after puromycin selection, dead cells were removed and puromycin resistant cells were trypsinized and counted with a hemocytometer. The puromycin resistant cells were plated on a 10 cm plate (1×10^4 cells/plate) in 10 ml DMEM with 500 μg/ml G418. The RT inhibitors were added to the same concentration as in the puromycin selection. […] Two weeks later, G418 resistant cells were fixed to the plate and stained with 0.1% crystal violet. The number of G418 resistant colonies was counted to calculate retrotransposition frequency. Six independent assays were done for each RT inhibitor.

[2] = target: T1, human L1 reverse transcriptase (MBP-RT fusion) (Homo sapiens, UniProt O00370); assay: In vitro (cell-free) RT assay and kinetic analysis with recombinant L1 RT; type: biochemical; conditions: for IC50: calculated as IC50 = Ki(1+ S/Km), read-out: IC50 against L1 RT; for Ki: competitive with respect to dTTP (AZTTP, d4TTP) or dCTP (ddCTP, 3TCTP), Lineweaver-Burk, read-out: Ki against L1 RT; for high concentration at which L1 RT was inhibited: inhibited only at this high concentration; for inhibition of L1 RT activity: concentrations as high as 500 μM
T1 construct: Human L1 ORF2 amino acid 238-1061 was inserted behind MBP gene in frame; made in house; host or cells: E. coli BL21
Method: (§2) The RT assays for HIV-1 and L1 RT were performed in a 20 μl reaction mixtures containing 50 mM Tris-Cl (pH 8.0), 50 mM KCl, 5 mM MgCl2, 10 mM DDT, 0.01 U template/primer, 1 μl [α-^32P] dTTP or [α-^32P] dCTP (final concentration 0.17 μM, 3000 Ci/mmol, 10 mCi/ml) at 37°C for 30 min. Then the mixture was spotted on DE81 paper and washed three times with 2×SSC buffer for a total time of 30 min. The DE81 paper was dried and counted by scintillation counter Beckman LS6000SC. RT assay for Ty1 RT was done under the same buffer condition except that 20 mM MgCl2 was used and the reaction mixture was incubated at room temperature. In each reaction the amounts of L1, HIV-1 and Ty1 RTs with the same specific activity were added. To test the inhibition of the RT inhibitors, 1 μl inhibitor was included in the mixture to obtain the desired concentration. […] All assays were done at least in triplicate.
The kinetic analysis was performed under the same conditions described above but with various concentrations of substrates and inhibitors as indicated in the text. Poly (rA)-oligo (dT)12-18 and [α-^32P] dTTP were used to analyze AZTTP and d4TTP. Poly (rI)-oligo (dC)12-18 and [α-^32P] dCTP were used to assay ddCTP and 3TCTP.

Ty1 RT [3] = target: T2, Ty1 RT (Saccharomyces cerevisiae, UniProt Q99231); assay: In vitro RT assay with recombinant Ty1 RT; type: biochemical; conditions: for increase of Ty1 RT activity: at low concentrations; for high concentration at which Ty1 RT was inhibited: inhibited only at this high concentration
T2 construct: recombinant Ty1 RT, which required C-terminal residues of integrase for its RT activity; made in house; host or cells: E. coli BL21 (co-transformed with chaperone plasmid pG-Tf2)
T2 sequence (Q99231 1103-1755): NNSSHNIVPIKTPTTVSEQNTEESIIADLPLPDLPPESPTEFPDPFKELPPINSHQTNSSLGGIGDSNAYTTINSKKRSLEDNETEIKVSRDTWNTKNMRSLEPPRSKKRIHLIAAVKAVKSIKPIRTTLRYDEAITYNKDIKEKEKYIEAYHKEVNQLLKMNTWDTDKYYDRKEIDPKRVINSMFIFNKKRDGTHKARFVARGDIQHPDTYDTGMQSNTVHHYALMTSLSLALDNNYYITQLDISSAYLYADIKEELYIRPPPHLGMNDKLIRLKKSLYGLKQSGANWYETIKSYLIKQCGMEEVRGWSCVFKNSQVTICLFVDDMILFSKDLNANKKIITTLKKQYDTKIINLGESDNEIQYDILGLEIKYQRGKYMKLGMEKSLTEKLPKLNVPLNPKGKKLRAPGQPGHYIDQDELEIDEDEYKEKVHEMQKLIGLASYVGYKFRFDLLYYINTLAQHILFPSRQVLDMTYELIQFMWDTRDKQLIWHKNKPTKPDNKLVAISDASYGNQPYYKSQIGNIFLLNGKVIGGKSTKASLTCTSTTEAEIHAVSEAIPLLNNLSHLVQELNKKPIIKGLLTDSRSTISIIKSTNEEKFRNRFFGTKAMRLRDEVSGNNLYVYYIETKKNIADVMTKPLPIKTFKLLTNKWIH
Method: as §2

[4] = test system: ORFeus-Mm (synthetic mouse L1) retrotransposition; assay: Cell-based L1 retrotransposition assay, ORFeus-Mm; conditions: control = 1.0, normalized to cell viability
Method: as §1

HIV-1 = test system: HIV-1; parameters: method as in PMID 2413459; conditions: cited from earlier work
HeLa cells = assay: Cell cytotoxicity of RT inhibitors; type: cell-based, human
Method: Untransfected Hela cells were plated on 10 cm plate (500 cells/plate) with and without RT inhibitors. Ten days later, cells were fixed to the plate and stained with 0.1% crystal violet. The number of colonies was counted to calculate colony formation ability. Colony formation ability of control assay without inhibitors was considered as 1.0 and colony formation ability in the presence of inhibitors was indicated as relative efficiency with respect to the control.

HIV-1 RT = conditions: read-out: IC50 against HIV-1 RT; previously reported; cited from earlier work
[5] = test system: AMV RT, MLV RT, human DNA polymerases α, β, γ and Klenow fragment; conditions: cited from earlier work
[6] = test system: HIV-1 mutants (substitutions at positions 103, 106, 181, 188 and 190); parameters: method as in PMID 17370068; conditions: cited from earlier work
Ty1 RT [7] = target: T2, Ty1 RT; parameters: method as in PMID 10816427, PMID 11577982; conditions: ratio of ddGTP/GTP 0.2; cited from earlier work
[8] = Homo sapiens, HeLa, 5 μM, control = 1.0, normalized to cell viability, read-out: Relative retrotransposition efficiency
[9] = Homo sapiens, HeLa, 50 μM, control = 1.0, normalized to cell viability, read-out: Relative retrotransposition efficiency
[10] = 50 μM, control = 1.0, normalized to cell viability

SMILES: Nc1ccn([C@H]2CS[C@@H](CO)O2)c(=O)n1 [3TC, 2',3'-dideoxy-3'-thiacytidine]
- activity at 5 µM [1, 8]: 8 ± 3%
- activity at 50 µM [1, 9]: 3 ± 3%

SMILES: Nc1ccn([C@@H]2CS[C@H](COP(=O)(O)OP(=O)(O)OP(=O)(O)O)O2)c(=O)n1 [3TCTP, 2',3'-dideoxy-3'-thiacytidine triphosphate]
- IC50 [2]: 18.6 nM
- Ki [2]: 12.9 ± 0.16 nM
- increase of Ty1 RT activity (Ty1 RT [3]): up to 40%

SMILES: Nc1nc(NC2CC2)c2ncn(C3C=C[C@H](CO)C3)c2n1 (stereo partly drawn) [ABC, [(1R)-4-[2-amino-6-(cyclopropylamino)purin-9-yl]-1-cyclopent-2-enyl]methanol]
- activity at 5 µM [1, 8]: 74 ± 6%
- activity at 50 µM [1, 9]: 20 ± 4%
- Relative retrotransposition efficiency ([4]; 5 μM): 0.80 ± 0.05
- Relative retrotransposition efficiency ([4]; 50 μM): 0.15 ± 0.03

SMILES: Cc1cn([C@H]2C[C@H](N=[N+]=[N-])[C@@H](CO)O2)c(=O)[nH]c1=O [AZT, azidothymidine]
- activity at 5 µM [1, 8]: 62 ± 6%
- activity at 50 µM [1, 9]: 23 ± 4%
- Relative retrotransposition efficiency ([4]; 5 μM): 0.75 ± 0.08
- Relative retrotransposition efficiency ([4]; 50 μM): 0.16 ± 0.02
- concentration completely inhibiting HIV-1 production (HIV-1): 1 to 3 µM

- IC50 [2]: 19.8 nM
- Ki [2]: 16.4 ± 4.21 nM
- increase of Ty1 RT activity (Ty1 RT [3]): up to 40%
SMILES: Cc1cn([C@H]2C[C@H](N=[N+]=[N-])[C@@H](CO[P@](=O)(O)O[P@](=O)(O)OP(=O)(O)O)O2)c(=O)[nH]c1=O [AZTTP, azidothymidine triphosphate]

SMILES: CC(C)Nc1cccnc1N1CCN(C(=O)c2cc3cc(NS(C)(=O)=O)ccc3[nH]2)CC1 [DLV, delavirdine]
- high concentration at which L1 RT was inhibited [2]: 50 µM
- high concentration at which Ty1 RT was inhibited (Ty1 RT [3]): 50 µM
- activity at 5 µM [1, 8]: 63%
- activity at 50 µM [1, 9]: 28 ± 3%
- inhibition at 50 µM ([1]; Homo sapiens, HeLa, 50 μM, read-out: inhibition of L1 retrotransposition efficiency): ~72%
- Relative retrotransposition efficiency ([4]; 5 μM): 0.60 ± 0.05
- Relative retrotransposition efficiency ([4]; 50 μM): 0.02 ± 0.01
- concentration causing massive HeLa cell death (HeLa cells): 100 µM
- IC50 (HIV-1 RT): 260 nM

SMILES: O=C1Nc2ccc(Cl)cc2[C@@](C#CC2CC2)(C(F)(F)F)O1 [EFV, efavirenz]
- high concentration at which L1 RT was inhibited [2]: 500 µM
- high concentration at which Ty1 RT was inhibited (Ty1 RT [3]): 500 µM
- activity at 5 µM [1, 8]: 28 ± 2%
- inhibition at 5 µM ([1]; Homo sapiens, HeLa, 5 μM, read-out: inhibition of L1 retrotransposition efficiency): ~72%
- concentration causing massive HeLa cell death (HeLa cells): 50 µM
- activity against a variety of polymerases [5]: inactive

SMILES: Nc1nc(=O)n(C2CSC(CO)O2)cc1F (stereo not shown) [FTC, 4-amino-5-fluoro-1-[2-(hydroxymethyl)-1,3-oxathiolan-5-yl]-pyrimidin-2-one]
- activity at 5 µM [1, 8]: 25 ± 1%
- activity at 50 µM [1, 9]: 12 ± 4%
- Relative retrotransposition efficiency ([4]; 5 μM): 0.34 ± 0.01
- Relative retrotransposition efficiency ([4]; 50 μM): 0.26 ± 0.04

SMILES: Cc1ccnc2c1NC(=O)c1cccnc1N2C1CC1 [NVP, nevirapine]
- inhibition of L1 RT activity [2]: no inhibition
- inhibition of L1 RT activity ([2]; listed as nevirapine): no effect
- inhibition of Ty1 RT activity (Ty1 RT [3]; concentrations as high as 500 μM): no inhibition
- activity at 5 µM [1, 8]: 108 ± 13%
- activity at 50 µM [1, 9]: 89 ± 3%
- activity at 200 µM ([1]; Homo sapiens, HeLa, 200 μM, control = 1.0, normalized to cell viability, read-out: Relative retrotransposition efficiency): 89%
- activity at 400 µM ([1]; Homo sapiens, HeLa, 400 μM, control = 1.0, normalized to cell viability, read-out: Relative retrotransposition efficiency): 87 ± 3%
- decrease of L1 transposition frequency ([1]; at all tested concentrations): ~ 10%
- activity against a variety of polymerases [5]: inactive
- reduction of susceptibility in HIV-1 mutants [6]: more than 50 fold

SMILES: Cc1cn([C@H]2C=C[C@@H](CO)O2)c(=O)[nH]c1=O [d4T, 2'-3'-didehydro-2'-3'-dideoxythymidine]
- Relative retrotransposition efficiency ([1]; 5 μM, control = 1.0, normalized to cell viability): 0.50 ± 0.05
- Relative retrotransposition efficiency [1, 10]: 0.05 ± 0.04
- Relative retrotransposition efficiency ([4]; 5 μM): 0.28 ± 0.05
- Relative retrotransposition efficiency ([4]; 50 μM): 0.01 ± 0.02

- IC50 [2]: 0.88 nM
- Ki [2]: 0.73 ± 0.22 nM
SMILES: Cc1cn([C@H]2C=C[C@@H](COP(=O)(O)OP(=O)(O)OP(=O)(O)O)O2)c(=O)[nH]c1=O [d4TTP, 2'-3'-didehydro-2'-3'-dideoxythymidine triphosphate]

- Km ([2]; poly (rI)-oligo (dC)12-18, no inhibitor, read-out: Km value for dCTP substrate): 0.38 µM
SMILES: Nc1ccn([C@H]2C[C@H](O)[C@@H](COP(=O)(O)OP(=O)(O)OP(=O)(O)O)O2)c(=O)n1 [dCTP]

- Km ([2]; poly (rA)-oligo (dT)12-18, no inhibitor, read-out: Km value for dTTP): 0.83 µM
SMILES: Cc1cn([C@H]2C[C@H](O)[C@@H](COP(=O)(O)OP(=O)(O)OP(=O)(O)O)O2)c(=O)[nH]c1=O [dTTP]

SMILES: Nc1ccn([C@H]2CC[C@@H](CO)O2)c(=O)n1 [ddC, 2'-3'-dideoxycytidine]
- Relative retrotransposition efficiency [1, 10]: <0.005^c
- Relative retrotransposition efficiency ([4]; 5 μM): <0.0025^c
- Relative retrotransposition efficiency ([4]; 50 μM): <0.0025^c

- IC50 [2]: 1.04 nM
- Ki [2]: 0.72 ± 0.16 nM
- increase of Ty1 RT activity (Ty1 RT [3]): up to 40%
SMILES: Nc1ccn([C@H]2CC[C@@H](COP(=O)(O)OP(=O)(O)OP(=O)(O)O)O2)c(=O)n1 [ddCTP, 2'-3'-dideoxycytidine triphosphate]

SMILES: Nc1nc2c(ncn2[C@H]2CC[C@@H](COP(=O)(O)OP(=O)(O)OP(=O)(O)O)O2)c(=O)[nH]1 [ddGTP]
- decrease of Ty1 RT activity (Ty1 RT [7]): 90%

SMILES: O=c1[nH]cnc2c1ncn2[C@H]1CC[C@@H](CO)O1 [ddI, 2'-3'-dideoxyinosine]
- Relative retrotransposition efficiency [1, 10]: <0.005^c
- Relative retrotransposition efficiency ([4]; 5 μM): <0.0025^c
- Relative retrotransposition efficiency ([4]; 50 μM): <0.0025^c

From publication PMC3103432, “Effect of reverse transcriptase inhibitors on LINE-1 and Ty1 reverse transcriptase activities and on LINE-1 retrotransposition” (BMC Biochemistry, 2011)
